This is an account of results in patent US12152012B2, “BRAG2 inhibitors and applications thereof” (CENTRE NATIONAL DE LA RECHERCHE SCIENTIFIQUE, priority 2018, dated 2024).

“Also recorded” adds a separate entry of the source.

One assay concerns the target T1, BRAG2 (BRAG2^Sec7PH) (Homo sapiens, UniProt Q6DN90).
T1 construct: human BRAG2^Sec7 (390-594) and BRAG2^Sec7PH (390-811); made in house
The assay is described as follows: Nucleotide exchange kinetics on liposomes, activation of myristoylated Arf1. It counts as biochemical. As for the experimental part: The effect of Bragsin1 on the GEF efficiency of representative human ArfGEFs was evaluated by fluorescence kinetics using highly purified recombinant Arf GTPases and ArfGEFs. In a first series of assays, the Sec7 domains of BIG1, a Golgi ArfGEF, and of ARNO, EFA6a and BRAG2, which function at the plasma membrane, were used. When tested in solution, Bragsin1 had no effect on the activation of Arf1 by any of these Sec7 domains (FIGS. 2a and 14). Separately, we reconstituted the activation of myristoylated Arf1 by the same ArfGEFs on liposomes using ArfGEF constructs that contain a membrane-binding domain (DCB-HUS domain for BIG1, PH domains for the other GEFs). […] BRAG2 activates several Arf isoforms, including the plasma membrane-located Arf6 isoform. […] Bragsin1 and Bragsin2 have the same IC50 towards BRAG2 ([…]) according to dose-response analysis, confirming that Bragsin1 and Bragsin2 can be used interchangeably (FIG. 2d). The specific inhibition of BRAG2 by Bragsin in vitro predicts that BRAG2 silencing by siRNA should yield the same phenotype as treatment by the small molecule. Silencing of BRAG2 induced the redistribution of TGN46 into tubular or punctate structures, which phenocopied the effects induced by Bragsin (FIGS. 2e, 17 and 18). […] Silencing of ARNO, which is located at the plasma membrane, had no effect on TGN46 distribution. Overexpression of BRAG2-mCherry rescued the dispersion of the TGN46 structure induced by Bragsin, which is consistent with the silencing experiments (FIG. 2f). Bragsin is a specific inhibitor of the ArfGEF BRAG2 in vitro and in cells according to these experiments. These oexperiments identify a mechanism of inhibition that requires the membrane to manifests itself.
Bovine Δ17Arf1 and human Δ13Arf6, full-length myristoylated Arf1 and Arf6, human BRAG2^Sec7 (390-594) and BRAG2^Sec7PH (390-811), human EFA6^Sec7 (527-727) and EFA6^Sec7PHCt (527-1024), ARNO^Sec7 (50-256), BIG1^Sec7 (691-889), BIG1^DcbHusSec7 (2-888) and ARNO^Sec7PH (50-399) were expressed and purified as in (Benabdi, S. et al. Family-wide Analysis of the Inhibition of Arf Guanine Nucleotide Exchange Factors with Small Molecules: Evidence of Unique Inhibitory Profiles. Biochemistry 56, 5125-5133 (2017)) and references therein. BRAG2^Sec7PH mutants were purified as the wild type protein. Purification of human full-length Rac1 carrying a 6xHis tag in C-terminus and human TRIO^DH1PH1 (1232-1550) was described in (Peurois, F. et al. Characterization of the activation of small GTPases by their GEFs on membranes using artificial membrane tethering. Biochem J 474, 1259-1272 (2017)).
Lipids (of natural origin) were from Avanti Polar Lipids, except NBD-PE from Sigma. Liposomes were prepared as described in (Aizel, K. et al. Integrated conformational and lipid-sensing regulation of endosomal ArfGEF BRAG2. PLOS Biol 11, e1001652 (2013)) and extruded at 0.2 μm. For the Arf GEF specificity studies, liposomes contained 48% phosphatidylcholine (PC), 20% phosphatidylethanolamine (PE), 30% phosphatidylserine (PS) and 2% phosphatidylinositol-4,5-bisphosphate (PIP2). For Rac activation assay, liposomes contained 43% PC, 20% PE, 10% PS, 20% cholesterol, 2% PIP2, 5% NiNTA lipids and 0.2% NBD-PE. To exclude aggregation or disruption of the liposomes, their size distribution was controlled before and after experiments by dynamic light scattering as described in (Benabdi, S. et al. Biochemistry 56, 5125-5133 (2017)). Dose-response and flotation assays were carried out with liposomes containing 37.9% PC, 20% PE, 20% PS, 2% PIP2, 20% cholesterol and 0.1% NBD-PE. Flotation assays were carried out as in 18.
Nucleotide exchange kinetics were monitored by tryptophan fluorescence with excitation/emission wavelengths of 292/340 nm using a Cary Eclipse fluorimeter (Varian) at 37° C. and under continuous stirring as described in ^50,51. […]

Assay [1] has as its system EEA1 (early endosome marker) in Hela cells. Nature of the assay: Immunostaining and confocal microscopy of Hela cells. In kind it is cell-based, human. The settings on record: 50 μM, 30 min. As for the experimental part: FIG. 1. Bragsin2 affects Arf pathways in cells • a. Chemical structures of Bragsin1 and Bragsin2 and derivatives used in this study. Chemical synthesis and structural characterization of the compounds are described in example 6. • b. Bragsin2 disperses the TGN46 and GM130 markers. HeLa cells were treated with either DMSO (0.25%) or Bragsin2 (50 μM) for 30 min, immunostained for TGN46, GM130 or EEA1 (green channel) and analysed by confocal microscopy. Dispersion of GM130 and TGN46 by Bragsin2 is reversible. Hela cells were treated as in FIG. 1a and were incubated for an additional 30 min in fresh medium (wash panel) prior to immunostaining and confocal microscopy analysis. Expression of Arf-mCherry constructs carrying an activating mutation rescues the effect of Bragsin2. Hela cells were transfected with constitutively active Q/L mutants of Arf-mCherry. Note the difference between non-transfected cells (white asterisk) and transfected cells. Scale bars, 10 μm.
Hela cells were grown in Dulbecco's modified Eagle's medium supplemented with Glutamax™ and 10% fetal bovine serum (Invitrogen). For immunofluorescence studies, cells were grown on Labtek glass slides (Nunc) and transfected for 18 to 24 h using Lipofectamine 2000 (Invitrogen), according to the supplier's instructions. When specified, cells were treated with the indicated concentration of small molecule or corresponding volume of vehicle (DMSO) in growth medium for 30 min at 37° C.
Immunostaining procedure was as described in (Viaud, J. et al. Structure-based discovery of an inhibitor of Arf activation by Sec7 domains through targeting of protein-protein complexes. Proc Natl Acad Sci USA 104, 10370-5 (2007)) except that secondary antibody incubation was performed for 1h using Alexa 488-conjugated goat anti-mouse (1:600) or donkey anti-sheep (1:500) IgG and Alexa 647-conjugated phalloidin (1:100). Anti-GM130 was used at dilution 1:200. Images were bidirectionally recorded using an inverted Leica TCS SP8 laser-scanning confocal microscope with a 100× (N. A. 1.40) oil objective (HCX APO, Leica). Fluorochromes were detected sequentially using excitation laser lines at 488 nm (Alexa 488), 594 nm (mCherry) and 633 nm (Alexa 647). Stacks were generated using a z-step of 0.5 μm and processed using Fiji/ImageJ (Schindelin, J. et al. Fiji: an open-source platform for biological-image analysis. Nat Methods 9, 676-82 (2012)). Images are representative of at least two independent experiments.

T1 sequence (Q6DN90 512-933): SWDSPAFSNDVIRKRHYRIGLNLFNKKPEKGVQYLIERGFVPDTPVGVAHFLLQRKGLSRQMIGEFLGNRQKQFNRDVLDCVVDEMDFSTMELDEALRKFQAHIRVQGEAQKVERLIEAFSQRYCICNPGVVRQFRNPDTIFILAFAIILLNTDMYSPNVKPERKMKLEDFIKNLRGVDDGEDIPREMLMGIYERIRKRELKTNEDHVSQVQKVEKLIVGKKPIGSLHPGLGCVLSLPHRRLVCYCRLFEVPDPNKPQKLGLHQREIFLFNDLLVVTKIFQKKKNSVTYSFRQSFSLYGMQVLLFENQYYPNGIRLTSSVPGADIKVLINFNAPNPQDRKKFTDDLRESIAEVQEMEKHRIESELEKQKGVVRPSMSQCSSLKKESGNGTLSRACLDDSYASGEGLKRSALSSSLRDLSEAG

Regarding `Cc1ccc2oc(C(F)(F)F)cc(=O)c2c1[N+](=O)[O-]` [Bragsin1, 6-methyl-5-nitro-2-(trifluoromethyl)-4H-chromen-4-one], the “Inhibition of BRAG2 in the presence of liposomes” value on BRAG2 (BRAG2^Sec7PH) (50 μM compound vs DMSO, myristoylated Arf1, liposomes) is listed as “strongly inhibited; also recorded: specifically inhibits”. Also, at BRAG2 (BRAG2^Sec7PH) (stock solution in DMSO kept for several months), the “Activity towards BRAG2 after storage” value is given as “lost activity”.

On to `COc1ccc2oc(C(F)(F)F)cc(=O)c2c1[N+](=O)[O-]` [Bragsin2, 6-methoxy-5-nitro-2-(trifluoromethyl)-4H-chromen-4-one], for which the “Inhibition of BRAG2 on liposomes that contain PIP2 compared to PS as sole negatively charged lipid” value on BRAG2 (BRAG2^Sec7PH) (lipid composition of liposomes varied) was “more efficiently; also recorded: stronger”. For the same molecule, the “Effect on early endosome marker EEA1” value in assay [1] is listed as “no effect”.
